Patent US11485720B2, “Anti-infective agents” (University of Dundee, priority 2016, dated 2022)
≈ marks a conversion by molar mass, not a printed value.

How the values were obtained:
Type in all cases: cell-based
[1] = system: M. tuberculosis H37Rv; test: In vitro inhibition of M. tuberculosis H37Rv (MIC, resazurin); details: Mycobacterium tuberculosis, read-out: Mtb MIC
[2] = system: Leishmania donovani; test: Leishmania donovani intramacrophage inhibition assay (Ld-INMAC); details: intramacrophage amastigotes in THP-1 cells, read-out: Ld-INMAC pEC50 (converted)
Procedure: Assay Method for Measurement of In Vitro Inhibition of Leishmania donovani.
These experiments were run in accordance with the method as detailed herein and results from these experiments are provided in the Experimental Results hereinafter.
The intramacrophage Leishmania assay was performed as described in de Rycker et al (Antimicrob Agents Chemother, 2013 July; 57(7):2913-22. doi: 10.1128/AAC.02398-12). Briefly, 1 μl of compound was pre-dispensed into 384 well sterile intermediary plates. For single point screening, amphotericin B was added to all wells of column 24 as a positive control (final concentration 2 μM) and DMSO to column 23. For potency determinations, ten-point, one in three dilution curves were created with the highest concentration being 50 μM and on each plate a control curve of amphotericin B was included. Controls were as follows: columns 11 and 12: DMSO, columns 23 and 24: amphotericin B (final concentration 2 μM). To the intermediary plates, 100 μl of THP-1 media was added and plates were shaken for >5 min to ensure complete mixing. THP-1 cells (8,000 per well, 50 μl) were plated into black clear-bottom 384 well plates (Corning) in presence of 10 nM PMA. After 20 min at room temperature, the plates were incubated at 37° C. under 5% CO2 in a humidified incubator for 75 h. The cells were then washed with […] sterile phosphate buffered saline (PBS) supplemented with 1 mM CaCl2, 0.5 mM MgCl2, 0.1% (w/v) bovine serum albumin (PBS-A) and amastigotes were added to all wells at a multiplicity of infection of 5 (40,000 amastigotes per well). After 40 min at room temperature, plates were returned to the incubator. Amastigotes were incubated in the presence of macrophages for 16 h. Any remaining extracellular amastigotes were subsequently removed with an overflow wash of 1 ml PBS-A per well (wash buffer is being aspirated from the top of the well as it is being dispensed) followed by addition of 25 μl of the compound pre-dilutions using a Matrix Hydra DT pipetting station. The final dilution of each compound was 200-fold. Plates were incubated for 72 h and then washed (250 μl PBS-A) and fixed (4% (v/v) formaldehyde-PBS, 30 min, room temperature). After fixation, the wells were washed with 250 μl PBS, stained (10 μg/ml DAPI, 0.4 μg ml-1 HCS Cellmask Deep Red in PBS+0.1% (v/v) Triton X-100, 30 min, room temperature) and washed with 250 μl PBS. Finally, PBS+0.05% (v/v) thimerosal was added to the wells, the plates were sealed and imaged on a high-content microscope (GE IN Cell 1000 or GE IN Cell 2000) using a 10× objective. Image analysis was carried out with GE IN Cell Analyzer 1000 Workstation using the “Multi Target Analysis” module. […]

[3] = system: THP-1 cells; test: THP-1 host cell count in intramacrophage Leishmania assay; details: Homo sapiens, host cell toxicity, read-out: THP1 pEC50 (converted)
Procedure: The intramacrophage Leishmania assay was performed as described in de Rycker et al (Antimicrob Agents Chemother, 2013 July; 57(7):2913-22. doi: 10.1128/AAC.02398-12). Briefly, 1 μl of compound was pre-dispensed into 384 well sterile intermediary plates. For single point screening, amphotericin B was added to all wells of column 24 as a positive control (final concentration 2 μM) and DMSO to column 23. For potency determinations, ten-point, one in three dilution curves were created with the highest concentration being 50 μM and on each plate a control curve of amphotericin B was included. Controls were as follows: columns 11 and 12: DMSO, columns 23 and 24: amphotericin B (final concentration 2 μM). To the intermediary plates, 100 μl of THP-1 media was added and plates were shaken for >5 min to ensure complete mixing. THP-1 cells (8,000 per well, 50 μl) were plated into black clear-bottom 384 well plates (Corning) in presence of 10 nM PMA. After 20 min at room temperature, the plates were incubated at 37° C. under 5% CO2 in a humidified incubator for 75 h. The cells were then washed with […] sterile phosphate buffered saline (PBS) supplemented with 1 mM CaCl2, 0.5 mM MgCl2, 0.1% (w/v) bovine serum albumin (PBS-A) and amastigotes were added to all wells at a multiplicity of infection of 5 (40,000 amastigotes per well). After 40 min at room temperature, plates were returned to the incubator. Amastigotes were incubated in the presence of macrophages for 16 h. Any remaining extracellular amastigotes were subsequently removed with an overflow wash of 1 ml PBS-A per well (wash buffer is being aspirated from the top of the well as it is being dispensed) followed by addition of 25 μl of the compound pre-dilutions using a Matrix Hydra DT pipetting station. The final dilution of each compound was 200-fold. Plates were incubated for 72 h and then washed (250 μl PBS-A) and fixed (4% (v/v) formaldehyde-PBS, 30 min, room temperature). After fixation, the wells were washed with 250 μl PBS, stained (10 μg/ml DAPI, 0.4 μg ml-1 HCS Cellmask Deep Red in PBS+0.1% (v/v) Triton X-100, 30 min, room temperature) and washed with 250 μl PBS. Finally, PBS+0.05% (v/v) thimerosal was added to the wells, the plates were sealed and imaged on a high-content microscope (GE IN Cell 1000 or GE IN Cell 2000) using a 10× objective. Image analysis was carried out with GE IN Cell Analyzer 1000 Workstation using the “Multi Target Analysis” module. Settings for segmentation were as follows: nuclei: minimum area: 142.384 μm^2, sensitivity: 81, method: top-hat; cells: characteristic area: 2500 μm^2, sensitivity: 60, method: multiscale top-hat; organelles (amastigotes): granule size 1-3, 3 scales, sensitivity: 90, detection in entire cell. […]

[4] = system: Leishmania donovani; test: Ld-cAxAm-TP-pMIC assay; details: read-out: Ld-cAxAm-TP-pMIC pEC50 (converted)

In the case of `O=C(NCC1CCCCC1)c1cc(=O)c2cc(F)cc(O)c2o1` [Example 70, N-(cyclohexylmethyl)-6-fluoro-8-hydroxy-4-oxo-4H-chromene-2-carboxamide], the MIC [1] is reported as 30 µM (≈ 9.58 µg/mL), the EC50 [2] is reported as 15.8 µM and the EC50 [3] is reported as 50.1 µM. For the same compound, the EC50 [4] was 0.794 µM.
